Experimental findings from patent US20120165325A1, “Stable forms of N-(2,6-Dimethyl-4-morpholin-4-yl-phenyl)-3,3-dimethyl-butyramide” (H. Lundbeck A/S, priority 2009, published 2012) are described below.

Molecules are shown by their SMILES. Marks after values point to notes of the source that are not given here.

The subject of series [1] is DA levels in the nucleus accumbens. In words: Microdialysis: DA levels in the nucleus accumbens of freely moving rats. The class given is in vivo, rat. Particulars: for DA level in the nucleus accumbens, % of baseline: amphetamine 0.5 mg/kg s.c. + compound 5 mg/kg s.c. The protocol:
Subjects. Male Sprague-Dawley rats (Charles River), initially weighing 275-300 g, were used. The animals were housed under a 12-hr light/dark cycle under controlled conditions for regular in-door temperature (21±2° C.) and humidity (55±5%) with food and tap water available ad libitum.
Surgery. Animals were anaesthetized with hypnorm/dormicum (2 ml/kg s.c.) and intracerebral guide cannulas (CMA/12) were stereotaxically implanted, positioning the dialysis probe tip in the nucleus accumbens (co-ordinates: 1.7 mm anterior to bregma, −1.2 mm lateral to bregma, 8.0 mm ventral to the dura). Anchor screws and acrylic cement was applied for fixation of the guide cannula. The body temperature of the animals was maintained at 37° C. by means of a rectal probe and a heating plate. The rats were allowed to recover from surgery for 2 days, housed singly in cages.
Experimental procedure. On the day of the experiment, a microdialysis probe (CMA/12, 0.5 mm diameter, 2 mm length) was inserted through the guide cannula of the conscious animal.
The probes were connected to a microinjection pump via a dual channel swivel which allowed the animals unrestricted movements. Perfusion of the microdialysis probe with filtered Ringer solution (145 mM NaCl, 3 mM KCl, 1 mM MgCl2, 1.2 mM CaCl2) was maintained for the duration of the experiment at a constant flow rate of 1 μL/min. After 180 min of stabilisation, the experiments were initiated. Dialysates were collected every 20 min. After the experiments the rats were sacrificed by decapitation, their brains removed, frozen and sliced for probe placement verification.
Administration of compounds. N-(2,6-dimethyl-4-morpholin-4-yl-phenyl)-3,3-dimethyl-butyramide (5 mg/kg) or vehicle (10% 2-hydroxy-propyl-beta-cyclodextrin, isotonic, pH 5-7) was administered subcutaneously in a volume of 2.5 ml/kg. Thirty min after the first administration dex-amphetamine sulphate (0.5 mg/kg s.c.) was administered.
Analysis of dialvsate. The concentration of dopamine (DA) in the dialysates was assessed by means of HPLC with electrochemicl detection. The dialysate constitutents were separated by reverse phase liquid chromatography (ODS 150×3 mm, […]). Mobile phase consisted of 90 mM NaH2PO4, 50 mM sodium citrate, 367 mg/l sodium 1-octanesulfonic acid, 50 μM EDTA and 8% acetonitrile (pH 4.0) at a flow rate of 0.5 mL/min. Electrochemical detection of DA was accomplished using a coulometric detector; potential set at E1=−75 mV and E2=300 mV (guard cell at 350 mV) (Coulochem II, ESA). The dialysate levels of DA in the three dialyse samples preceding the administration of compound were averaged and used as baseline level of DA (100%).
Statistical analysis. The dialysate levels of DA in the three dialyse samples preceding the administration of compound were averaged and used as baseline level of DA (100%). Data were analysed using repeated measure analyses of variance followed by post hoc tests (Tukey test), when appropriate. *p<0.05 were considered significant.

The subject of series [2] is Male Wistar rats. Briefly: Conditioned avoidance response. The class given is in vivo, rat. The following applies: for % inhibition of avoidance (Std. dev.) Relative to baseline: rats. The protocol: Subjects. Male Wistar rats (Taconic, Denmark) weighing 150 g at the beginning of the study were used. The rats were housed in pairs and maintained on a 12 h light/dark cycle (lights on 06:00). The animals were fed once daily (approx. 6 pellets/rat) in order to keep the rats at 80% of their free-feeding weight. Water was available ad libitum. Temperature (21±1° C.) and relative humidity (55±5%) were automatically controlled.
Experimental procedure. Conditioned avoidance testing was conducted using four automated shuttle-boxes (ENV-010M, MED-Associates) each placed in a sound-attenuated chamber. Each box was divided into two compartments by a partition with an opening. The position of the animal and crossings from one compartment to the other were detected by two photocells placed on either side of the dividing wall. Upon presentation of the conditioned stimuli (CS), tone and light, the animals have 10 s to cross to the other compartment of the shuttle-box in order to turn the CS off (end the trial) and avoid the appearance of the unconditioned stimulus (UCS). If the rat remained in the same compartment for more than 10 s, the UCS is presented as 0.5 mA scrambled foot-shocks until escape was performed or 10 s in maximal duration. The following behavioural variables were evaluated: avoidance (response to CS within 10 s); escape (reponse to CS+UCS); escape failures (failure to respond); intertrial crosses and locomotor activity. The rats were habituated to the shuttle-box 3 min before each test session. During training each test session consists of 30 trials with intertrial intervals varying randomly between 20 s and 30 s. Training was carried until the rats display an avoidance of 80% or more, on 3 consecutive days. […]
Statistical analyses. The effects of compounds on avoidance and escape failure behaviours were statistically evaluated by means of a two-way repeated measures ANOVA followed by post hoc comparisons (Student-Newman-Keuls Method) when appropriate. […]

Series [3] deals with Male NMRI mice. In words: Forced swim test. Particulars: 30 min before test, last 3 min of 6 min swim, vehicle = 100. Type of series: in vivo, mouse. The protocol: Subjects. Male NMRI mice (Charles River) weighing 23-25 g were used. The mice were kept 8 mice pr cage in a 12-hr light/dark cycle under controlled conditions for regular in-door temperature (21±2° C.) and humidity (55±5%) with food and tap water available ad libitum. 8 mice were used pr experimental group.
Experimental procedure. The mice were placed in 2000 ml beaker containing 1200 ml of tempered water (25° C.) and left to swim for 6 min. The performance of the mice was video recorded, digitalized and analysed by means of a digital analysis system (Bioobserve). The time spent immobile for the last 3 min. of the test session was quantified for each mouse.
Treatment. 30 min. before the test, mice were treated s.c. with N-(2,6-dimethyl-4-morpholin-4-yl-phenyl)-3,3-dimethyl-butyramide or vehicle (10-%-2-OH-propyl-cyclodextrin, 10 ml/kg). In addition as positive control, imipramine-HCl (40 mg/kg) and a saline control (10 ml/kg) was included.
Analyses. The time spent immobile was statistically compared across the experimental groups against the relevant control group by means of one-way analysis of variance. A post-hoc test (Student-Newman-Keuls) was employed when appropriate. P-levels <0.05 were considered significant.

Regarding `Cc1cc(N2CCOCC2)cc(C)c1NC(=O)CC(C)(C)C` [N-(2,6-dimethyl-4-morpholin-4-yl-phenyl)-3,3-dimethyl-butyramide], the “Effect on basal extracellular DA level in the nucleus accumbens” value in series [1] (freely moving rats, data not shown) is listed as “did not significantly affected”. Moreover, the “DA level in the nucleus accumbens, % of baseline” value in series [1] (time 0 min (baseline sample)) is 91 ± 4 % of baseline; in series [1] (time 20 min), 112 ± 12 % of baseline; in series [1] (time 40 min), 227 ± 46 % of baseline; in series [1] (time 60 min), 262 ± 53* % of baseline; in series [1] (time 80 min), 195 ± 38* % of baseline; in series [1] (time 100 min) it was 172 ± 24 % of baseline. The “DA level in the nucleus accumbens, % of baseline” value in series [1] (time 120 min) was 166 ± 32 % of baseline; in series [1] (time 140 min) it was 129 ± 35 % of baseline; in series [1] (time −20 min (baseline sample)), 100 ± 3 % of baseline; in series [1] (time −40 min (baseline sample)) it was 108 ± 5 % of baseline. The “% inhibition of avoidance (Std. dev.) Relative to baseline” value in series [2] (2.5 mg/kg s.c. 30 min before the test) was 1 (14) %; in series [2] (5 mg/kg s.c. 30 min before the test), 71%. For the same compound, the “Escape failures (effect on motor performance)” value in series [2] (2.5 and 5 mg/kg s.c., data not shown) was “None of the tested doses caused any incidences of escape failures”. For the same compound, the “Immobility in % (±S.D.)” value turned out to be 102% in series [3] (dose 1.3 mg/kg), 96.7% in series [3] (dose 2.5 mg/kg) and 82.3% in series [3] (dose 5.0 mg/kg).
